Reference: patent US10501460B2, “Heterocyclic compounds and uses thereof” (Plexxikon Inc., priority 2013, dated 2019)
pIC50: −log10 of the molar value.

Experiments:
[1] = test system: MV-4-11; test: Oncology cell growth assay MV-4-11 (CellTiter Glo, 72 hours); type: cell-based; conditions: Homo sapiens, MV4-11, 72 h; MV-4-11 cell growth inhibitory activity, 3d
Summary of the method: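 Growth read by CellTiter Glo luminescence after 72 h compound exposure of MV-4-11 AML cells (MLL-AF4), using 8-point 1:3 series to 10 μM final in 0.2% DMSO. Data normalized to DMSO wells, four-parameter fit yields pIC50.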

[2] = test system: bromodomain; test: Bromodomain cell assays of Example 40 (at least one of them); type: cell-based; conditions: in at least one of the bromodomain cell assays described in Example 40
Summary of the method: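 Growth inhibition: 3000 MV-4-11, MOLM-13, MM.1S or neuroblastoma cells/well got an 8-point 1:3 series from 10 μM top (0.2% DMSO) for 72 h, then CellTiter-Glo luminescence. Myc reporter: MV-4-11 with E-box firefly luciferase, 24 h exposure, One-Glo luminescence plus CellTiter-Fluo cell count. pIC50 from four-parameter fit.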

## Cc1noc(C)c1-c1cnc2c(-c3cnn(C)c3)cn(CC3CC(F)(F)C3)c2c1 [P-0213, 4-[1-[(3,3-difluorocyclobutyl)methyl]-3-(1-methylpyrazol-4-yl)pyrrolo[3,2-b]pyridin-6-yl]-3,5-dimethyl-isoxazole]
[1]
  IC50: ≤ 1 µM
[2]
  pIC50: > 5.00

## [2H]C([2H])(C1CC(F)(F)C1)n1cc(-c2cnn(C)c2)c2ncc(-c3c(C)noc3C)cc21 [P-0214, 4-[1-[dideuterio-(3,3-difluorocyclobutyl)methyl]-3-(1-methylpyrazol-4-yl)pyrrolo[3,2-b]pyridin-6-yl]-3,5-dimethyl-isoxazole]
[1]
  IC50: ≤ 1 µM
[2]
  pIC50: > 5.00

## Cc1noc(C)c1-c1cnc2c(-c3cc(C(F)(F)F)n[nH]3)cn(C(C)c3ccccc3)c2c1 (stereo not drawn) [P-0215, 3,5-dimethyl-4-[1-(1-phenylethyl)-3-[3-(trifluoromethyl)-1H-pyrazol-5-yl]pyrrolo[3,2-b]pyridin-6-yl]isoxazole]
[1]
  IC50: ≤ 1 µM
[2]
  pIC50: > 5.00

## Cc1noc(C)c1-c1cnc2c(-c3cnn(C4CC4)c3)cn(C(C)c3ccccc3)c2c1 (stereo not drawn) [P-0216, 4-[3-(1-cyclopropylpyrazol-4-yl)-1-(1-phenylethyl)pyrrolo[3,2-b]pyridin-6-yl]-3,5-dimethyl-isoxazole]
[1]
  IC50: ≤ 1 µM
[2]
  pIC50: > 5.00

## [2H]C([2H])(O)C(c1ccccc1)n1cc(-c2cnn(C)c2)c2ncc(-c3c(C)noc3C)cc21 (stereo not drawn) [P-0218, 1,1-dideuterio-2-[6-(3,5-dimethylisoxazol-4-yl)-3-(1-methylpyrazol-4-yl)pyrrolo[3,2-b]pyridin-1-yl]-2-phenyl-ethanol]
[1]
  IC50: ≤ 1 µM
[2]
  pIC50: > 5.00

## [2H]C([2H])(C1CCC(F)(F)CC1)n1cc(-c2cnn(C(F)F)c2)c2ncc(-c3c(C)noc3C)cc21 [P-0219, 4-[1-[dideuterio-(4,4-difluorocyclohexyl)methyl]-3-[1-(difluoromethyl)pyrazol-4-yl]pyrrolo[3,2-b]pyridin-6-yl]-3,5-dimethyl-isoxazole]
[1]
  IC50: ≤ 1 µM
[2]
  pIC50: > 5.00

## Cc1noc(C)c1-c1cnc2c(-c3cnn(C)c3)cn([C@@H](C)c3ccccc3)c2c1 [P-0222, 3,5-dimethyl-4-[3-(1-methylpyrazol-4-yl)-1-[(1S)-1-phenylethyl]pyrrolo[3,2-b]pyridin-6-yl]isoxazole]
[1]
  IC50: ≤ 1 µM
[2]
  pIC50: > 5.00

## Cc1noc(C)c1-c1cnc2c(-c3cnn(C)c3)cn([C@H](C)c3ccccc3)c2c1 [P-0223, 3,5-dimethyl-4-[3-(1-methylpyrazol-4-yl)-1-[(1R)-1-phenylethyl]pyrrolo[3,2-b]pyridin-6-yl]isoxazole]
[1]
  IC50: ≤ 1 µM
[2]
  pIC50: > 5.00

## Cc1noc(C)c1-c1cnc2c(I)cn(C(C)c3ccccc3)c2c1 (stereo not drawn) [P-0224, 4-[3-iodo-1-(1-phenylethyl)pyrrolo[3,2-b]pyridin-6-yl]-3,5-dimethyl-isoxazole]
[1]
  IC50: ≤ 1 µM
[2]
  pIC50: > 5.00
